The values below are quoted from earlier work in patent publication US20080287507A1, “Nicotine containing toiletry waters” (priority 2007, published 2008).

The conditions of series [1]: smoking a cigarette.

For `CN1CCCC1c1cccnc1` (centres unmarked) [Nicotine, 3-(1-methyl-2-pyrrolidinyl)-pyridine], the “single dose that may kill an adult” value is recorded as “Approximately 40 milligrams”. In series [1], the “time for nicotine to reach the brain after inhalation” value is reported as “around ten”.
